Measurements as given in ChEMBL document CHEMBL4364276, “Discovery of 4-phenyl-2H-benzo[b][1,4]oxazin-3(4H)-one derivatives as potent and orally active PI3K/mTOR dual inhibitors” (Eur J Med Chem, 2019).

Legend:
[1] = molecular target: Phosphatidylinositol 4,5-bisphosphate 3-kinase catalytic subunit alpha isoform (Homo sapiens, UniProt P42336); experiment: Inhibition of recombinant human full length N-terminal GST-tagged PI3Kalpha (1 to 1068 residues)/PIK3R1 (1 to 724 residues) expressed in baculovirus expression system using PIP2 as substrate incubated for 1 hr by ADP-Glo assay
HeLa = experiment: Antiproliferative activity against human HeLa cells assessed as reduction in cell viability incubated for 72 hrs by MTT assay; assay type: functional, cell-based
A549 = experiment: cells; conditions: Homo sapiens, A549, 72 h
MCF7 = experiment: cells; conditions: Homo sapiens, MCF7, 72 h
[2] = molecular target: Serine/threonine-protein kinase mTOR (Homo sapiens, UniProt P42345); experiment: Inhibition of recombinant human N-terminal FLAG-tagged mTOR (1362 to end residues) using Ulight-4E-BP1 as substrate incubated for 30 mins by fluorescence assay
A-375 = experiment: Antiproliferative activity against human A375 cells assessed as reduction in cell viability incubated for 72 hrs by MTT assay; assay type: functional, cell-based; conditions: A-375, 72 h
[3] = molecular target: PI3-kinase p110-delta/p85-alpha (Homo sapiens, UniProt O00329); experiment: Inhibition of recombinant human full length N-terminal GST-tagged PI3Kdelta (1 to 1044 residues)/PIK3R1 (1 to 724 residues) expressed in baculovirus expression system using PIP2 as substrate incubated for 2 hrs by ADP-Glo assay
HepG2 = experiment: cells; conditions: Homo sapiens, HepG2, 72 h
HCT-116 = experiment: Antiproliferative activity against human HCT116 cells assessed as reduction in cell viability incubated for 72 hrs by MTT assay; assay type: functional, cell-based; conditions: HCT-116, 72 h

Phosphatidylinositol 4,5-bisphosphate 3-kinase catalytic subunit alpha isoform, sequence (P42336 whole entry, looked up, the tested form may be a part, canonical isoform): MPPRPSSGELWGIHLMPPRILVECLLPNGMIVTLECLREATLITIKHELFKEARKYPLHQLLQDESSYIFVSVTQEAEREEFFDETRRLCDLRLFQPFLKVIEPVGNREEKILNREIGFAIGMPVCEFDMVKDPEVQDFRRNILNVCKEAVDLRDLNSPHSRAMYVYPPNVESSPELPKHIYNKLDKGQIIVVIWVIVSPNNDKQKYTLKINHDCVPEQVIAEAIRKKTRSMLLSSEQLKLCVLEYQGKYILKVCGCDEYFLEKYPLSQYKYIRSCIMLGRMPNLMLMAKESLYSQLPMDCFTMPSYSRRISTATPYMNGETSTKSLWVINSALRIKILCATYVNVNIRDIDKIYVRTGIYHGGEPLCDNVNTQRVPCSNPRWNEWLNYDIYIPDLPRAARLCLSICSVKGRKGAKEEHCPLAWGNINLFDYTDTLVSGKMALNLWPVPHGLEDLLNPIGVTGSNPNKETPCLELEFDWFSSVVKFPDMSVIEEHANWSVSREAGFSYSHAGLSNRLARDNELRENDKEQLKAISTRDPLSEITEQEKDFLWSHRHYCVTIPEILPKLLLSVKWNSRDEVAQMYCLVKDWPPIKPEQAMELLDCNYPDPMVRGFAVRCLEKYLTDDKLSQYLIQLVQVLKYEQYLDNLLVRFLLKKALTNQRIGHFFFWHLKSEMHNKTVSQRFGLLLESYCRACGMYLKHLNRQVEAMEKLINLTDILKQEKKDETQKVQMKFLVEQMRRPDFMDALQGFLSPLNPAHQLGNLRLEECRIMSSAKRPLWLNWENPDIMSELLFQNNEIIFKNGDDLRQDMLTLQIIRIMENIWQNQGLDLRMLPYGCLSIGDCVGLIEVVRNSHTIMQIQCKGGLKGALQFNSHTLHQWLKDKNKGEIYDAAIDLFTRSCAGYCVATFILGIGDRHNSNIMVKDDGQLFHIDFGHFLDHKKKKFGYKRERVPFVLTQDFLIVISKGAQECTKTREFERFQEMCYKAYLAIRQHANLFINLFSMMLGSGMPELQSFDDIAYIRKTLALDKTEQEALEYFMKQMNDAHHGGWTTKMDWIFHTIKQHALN
PI3-kinase p110-delta/p85-alpha, sequence (P27986 whole entry, the tested form may be a part): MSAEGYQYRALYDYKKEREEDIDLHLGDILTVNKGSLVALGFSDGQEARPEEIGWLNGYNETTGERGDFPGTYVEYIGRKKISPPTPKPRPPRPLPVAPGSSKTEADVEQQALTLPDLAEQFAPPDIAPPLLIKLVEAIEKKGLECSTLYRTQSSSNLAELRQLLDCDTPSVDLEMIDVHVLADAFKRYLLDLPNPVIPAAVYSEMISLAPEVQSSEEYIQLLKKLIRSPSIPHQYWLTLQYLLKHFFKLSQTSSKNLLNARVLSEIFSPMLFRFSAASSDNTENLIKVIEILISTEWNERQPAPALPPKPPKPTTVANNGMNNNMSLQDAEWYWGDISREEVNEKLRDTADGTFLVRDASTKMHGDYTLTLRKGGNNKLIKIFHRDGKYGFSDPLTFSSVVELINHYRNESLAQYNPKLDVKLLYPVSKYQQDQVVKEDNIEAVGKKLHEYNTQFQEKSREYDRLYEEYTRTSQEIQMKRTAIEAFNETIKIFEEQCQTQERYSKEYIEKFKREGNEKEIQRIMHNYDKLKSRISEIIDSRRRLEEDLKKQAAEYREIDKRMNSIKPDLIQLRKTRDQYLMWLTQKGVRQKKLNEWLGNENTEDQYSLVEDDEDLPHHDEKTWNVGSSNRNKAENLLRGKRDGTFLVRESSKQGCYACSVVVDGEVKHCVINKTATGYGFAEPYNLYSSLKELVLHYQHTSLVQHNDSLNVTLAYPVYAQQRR
PI3-kinase p110-delta/p85-alpha, sequence (O00329 whole entry, the tested form may be a part): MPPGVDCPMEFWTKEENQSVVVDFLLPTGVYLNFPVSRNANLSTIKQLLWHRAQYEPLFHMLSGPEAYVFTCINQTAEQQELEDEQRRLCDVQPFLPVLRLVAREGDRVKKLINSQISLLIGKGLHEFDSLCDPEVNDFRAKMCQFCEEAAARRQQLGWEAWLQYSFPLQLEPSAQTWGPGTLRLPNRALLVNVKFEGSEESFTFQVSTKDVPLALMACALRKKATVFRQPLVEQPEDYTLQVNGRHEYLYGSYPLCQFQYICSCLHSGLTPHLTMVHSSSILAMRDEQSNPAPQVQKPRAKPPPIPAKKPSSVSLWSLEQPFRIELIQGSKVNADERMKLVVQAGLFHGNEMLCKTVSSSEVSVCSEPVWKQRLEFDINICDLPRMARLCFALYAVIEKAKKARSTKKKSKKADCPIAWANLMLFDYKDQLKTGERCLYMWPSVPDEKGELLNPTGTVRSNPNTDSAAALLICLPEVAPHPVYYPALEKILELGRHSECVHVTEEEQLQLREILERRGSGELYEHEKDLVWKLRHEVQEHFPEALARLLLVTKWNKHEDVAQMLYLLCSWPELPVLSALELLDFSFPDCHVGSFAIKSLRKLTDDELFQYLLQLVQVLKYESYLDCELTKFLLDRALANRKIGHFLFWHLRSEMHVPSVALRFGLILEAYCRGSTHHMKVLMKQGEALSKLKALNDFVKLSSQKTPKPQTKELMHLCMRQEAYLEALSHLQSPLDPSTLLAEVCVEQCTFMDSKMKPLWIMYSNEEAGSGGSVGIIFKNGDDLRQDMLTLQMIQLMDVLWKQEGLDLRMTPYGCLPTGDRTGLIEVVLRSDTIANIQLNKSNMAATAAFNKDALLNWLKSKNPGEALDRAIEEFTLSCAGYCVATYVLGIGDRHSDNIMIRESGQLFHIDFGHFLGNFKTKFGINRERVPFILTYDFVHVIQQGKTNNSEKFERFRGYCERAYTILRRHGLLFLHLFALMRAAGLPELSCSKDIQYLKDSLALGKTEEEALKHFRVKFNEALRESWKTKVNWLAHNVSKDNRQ

## COc1ncc(-c2ccc3c(c2)N(c2ccc(C)cc2)C(=O)CO3)cc1NS(=O)(=O)c1ccc(F)cc1
[1]
  IC50: 0.012 µM
HeLa
  IC50: 4.65 µM
A549
  IC50: 5.87 µM
MCF7
  IC50: 15.4 µM
[2]
  IC50: 0.0138 µM
A-375
  IC50: 12.9 µM
[3]
  IC50: 0.017 µM
HepG2
  IC50: 28.3 µM
HCT-116
  IC50: 22.7 µM

## O=C1COc2ccc(-c3ccc(O)cc3)cc2N1c1ccc(F)cc1
[1]
  IC50: > 1 µM
HeLa
  IC50: > 40 µM
A549
  IC50: > 40 µM
MCF7
  IC50: 30.2 µM
[2]
  IC50: > 1 µM
A-375
  IC50: > 40 µM
[3]
  IC50: > 1 µM
HepG2
  IC50: > 40 µM
HCT-116
  IC50: > 40 µM

## COc1ccc(N2C(=O)COc3ccc(-c4cnc5ccccc5c4)cc32)cc1
[1]
  IC50: > 1 µM
HeLa
  IC50: > 40 µM
A549
  IC50: > 40 µM
MCF7
  IC50: > 40 µM
[2]
  IC50: > 1 µM
A-375
  IC50: > 40 µM
[3]
  IC50: > 1 µM
HepG2
  IC50: > 40 µM
HCT-116
  IC50: > 40 µM

## O=C1COc2ccc(-c3cnc4ccccc4c3)cc2N1C1CCCCC1
[1]
  IC50: > 1 µM
HeLa
  IC50: 19.7 µM
A549
  IC50: > 40 µM
MCF7
  IC50: > 40 µM
[2]
  IC50: > 1 µM
A-375
  IC50: > 40 µM
[3]
  IC50: > 1 µM
HepG2
  IC50: > 40 µM
HCT-116
  IC50: > 40 µM

## O=C1COc2ccc(-c3cccc(NS(=O)(=O)c4ccc(F)cc4)c3)cc2N1C1CCCCC1
[1]
  IC50: > 1 µM
HeLa
  IC50: 10.8 µM
A549
  IC50: 14.5 µM
MCF7
  IC50: 21.4 µM
[2]
  IC50: > 1 µM
A-375
  IC50: 23.8 µM
[3]
  IC50: > 1 µM
HepG2
  IC50: 35.9 µM
HCT-116
  IC50: 18.3 µM

## O=C1COc2ccc(-c3ccc(O)cc3)cc2N1C1CC1
[1]
  IC50: > 1 µM
HeLa
  IC50: > 40 µM
A549
  IC50: > 40 µM
MCF7
  IC50: 33 µM
[2]
  IC50: > 1 µM
A-375
  IC50: > 40 µM
[3]
  IC50: > 1 µM
HepG2
  IC50: 32.7 µM
HCT-116
  IC50: > 40 µM

## O=C1COc2ccc(-c3cnc4ccccc4c3)cc2N1
[1]
  IC50: > 1 µM
HeLa
  IC50: > 40 µM
A549
  IC50: > 40 µM
MCF7
  IC50: > 40 µM
[2]
  IC50: > 1 µM
A-375
  IC50: > 40 µM
[3]
  IC50: > 1 µM
HepG2
  IC50: 26.3 µM
HCT-116
  IC50: > 40 µM

## CC(C)N1C(=O)COc2ccc(-c3cccc(NS(=O)(=O)c4ccc(F)cc4)c3)cc21
[1]
  IC50: > 1 µM
HeLa
  IC50: 22.7 µM
A549
  IC50: 29.4 µM
MCF7
  IC50: 26 µM
[2]
  IC50: > 1 µM
A-375
  IC50: > 40 µM
[3]
  IC50: > 1 µM
HepG2
  IC50: > 40 µM
HCT-116
  IC50: 22.6 µM

## Cc1ccc(N2C(=O)COc3ccc(-c4cnc5ccccc5c4)cc32)cc1
[1]
  IC50: > 1 µM
HeLa
  IC50: > 40 µM
A549
  IC50: > 40 µM
MCF7
  IC50: > 40 µM
[2]
  IC50: > 1 µM
A-375
  IC50: > 40 µM
[3]
  IC50: > 1 µM
HepG2
  IC50: > 40 µM
HCT-116
  IC50: > 40 µM

## O=C1COc2ccc(-c3cnc4ccccc4c3)cc2N1c1ccccc1
[1]
  IC50: > 1 µM
HeLa
  IC50: > 40 µM
A549
  IC50: > 40 µM
MCF7
  IC50: > 40 µM
[2]
  IC50: > 1 µM
A-375
  IC50: > 40 µM
[3]
  IC50: > 1 µM
HepG2
  IC50: > 40 µM
HCT-116
  IC50: > 40 µM

## O=C1COc2ccc(-c3ccc(O)cc3)cc2N1C1CCCCC1
[1]
  IC50: > 10 µM
HeLa
  IC50: > 40 µM
A549
  IC50: > 40 µM
MCF7
  IC50: > 40 µM
[2]
  IC50: > 1 µM
A-375
  IC50: > 40 µM
[3]
  IC50: > 1 µM
HepG2
  IC50: > 40 µM
HCT-116
  IC50: > 40 µM

## CC(C)N1C(=O)COc2ccc(-c3cnc(Cl)c(NS(=O)(=O)c4ccc(F)cc4)c3)cc21
[1]
  IC50: 0.0155 µM
HeLa
  IC50: 5.38 µM
A549
  IC50: 5.1 µM
MCF7
  IC50: 26.6 µM
[2]
  IC50: 0.0043 µM
A-375
  IC50: 25.5 µM
[3]
  IC50: 0.0038 µM
HepG2
  IC50: 21.5 µM
HCT-116
  IC50: 18.9 µM

## O=C1COc2ccc(-c3cnc(Cl)c(NS(=O)(=O)c4ccc(F)cc4)c3)cc2N1C1CC1
[1]
  IC50: 0.086 µM
HeLa
  IC50: 7.18 µM
A549
  IC50: 4.33 µM
MCF7
  IC50: 16.7 µM
[2]
  IC50: 0.267 µM
A-375
  IC50: 21.8 µM
[3]
  IC50: 0.062 µM
HepG2
  IC50: 8.51 µM
HCT-116
  IC50: 12.4 µM

## COc1ncc(-c2ccc3c(c2)N(C2CCCCC2)C(=O)CO3)cc1NS(=O)(=O)c1ccc(F)cc1
[1]
  IC50: > 1 µM
HeLa
  IC50: 6.1 µM
A549
  IC50: 24.6 µM
MCF7
  IC50: 30.1 µM
[2]
  IC50: 0.873 µM
A-375
  IC50: > 40 µM
[3]
  IC50: 0.406 µM
HepG2
  IC50: > 40 µM
HCT-116
  IC50: > 40 µM

## COc1ncc(-c2ccc3c(c2)N(c2ccc(Cl)cc2)C(=O)CO3)cc1NS(=O)(=O)c1ccc(F)cc1
[1]
  IC50: 0.022 µM
HeLa
  IC50: 4.83 µM
A549
  IC50: 8.35 µM
MCF7
  IC50: 27.6 µM
[2]
  IC50: 0.0126 µM
A-375
  IC50: 24.1 µM
[3]
  IC50: 0.018 µM
HepG2
  IC50: 17.9 µM
HCT-116
  IC50: 19.2 µM

## COc1ncc(-c2ccc3c(c2)N(c2ccc(F)cc2)C(=O)CO3)cc1NS(=O)(=O)c1ccc(F)cc1
[1]
  IC50: 0.021 µM
HeLa
  IC50: 10.5 µM
A549
  IC50: 6.5 µM
MCF7
  IC50: > 40 µM
[2]
  IC50: 0.0349 µM
A-375
  IC50: > 40 µM
[3]
  IC50: 0.019 µM
HepG2
  IC50: 36.4 µM
HCT-116
  IC50: > 40 µM

## COc1ccc(N2C(=O)COc3ccc(-c4cnc(Cl)c(NS(=O)(=O)c5ccc(F)cc5)c4)cc32)cc1
[1]
  IC50: 0.00043 µM
HeLa
  IC50: 8.32 µM
A549
  IC50: 30.4 µM
MCF7
  IC50: 36 µM
[2]
  IC50: 0.0198 µM
A-375
  IC50: 32.7 µM
[3]
  IC50: 0.0038 µM
HepG2
  IC50: > 40 µM
HCT-116
  IC50: 30.1 µM

## CC(C)N1C(=O)COc2ccc(-c3ccc(O)cc3)cc21
[1]
  IC50: > 1 µM
HeLa
  IC50: > 40 µM
A549
  IC50: > 40 µM
MCF7
  IC50: > 40 µM
[2]
  IC50: > 1 µM
A-375
  IC50: > 40 µM
[3]
  IC50: > 1 µM
HepG2
  IC50: > 40 µM
HCT-116
  IC50: > 40 µM

## O=C1COc2ccc(-c3cccc(NS(=O)(=O)c4ccc(F)cc4)c3)cc2N1C1CC1
[1]
  IC50: > 1 µM
HeLa
  IC50: > 40 µM
A549
  IC50: > 40 µM
MCF7
  IC50: > 40 µM
[2]
  IC50: > 1 µM
A-375
  IC50: > 40 µM
[3]
  IC50: > 1 µM
HepG2
  IC50: > 40 µM
HCT-116
  IC50: > 40 µM

## COc1cccc(N2C(=O)COc3ccc(-c4cccc(NS(=O)(=O)c5ccc(F)cc5)c4)cc32)c1
[1]
  IC50: > 1 µM
HeLa
  IC50: > 40 µM
A549
  IC50: > 40 µM
MCF7
  IC50: > 40 µM
[2]
  IC50: > 1 µM
A-375
  IC50: > 40 µM
[3]
  IC50: > 1 µM
HepG2
  IC50: > 40 µM
HCT-116
  IC50: > 40 µM

## COc1cccc(N2C(=O)COc3ccc(-c4cnc(OC)c(NS(=O)(=O)c5ccc(F)cc5)c4)cc32)c1
[1]
  IC50: > 1 µM
HeLa
  IC50: > 40 µM
A549
  IC50: 11.2 µM
MCF7
  IC50: > 40 µM
[2]
  IC50: > 1 µM
A-375
  IC50: > 40 µM
[3]
  IC50: > 1 µM
HepG2
  IC50: > 40 µM
HCT-116
  IC50: > 40 µM

## O=C1COc2ccc(-c3cnc4ccccc4c3)cc2N1C1CC1
[1]
  IC50: > 1 µM
HeLa
  IC50: > 40 µM
A549
  IC50: > 40 µM
MCF7
  IC50: 29.5 µM
[2]
  IC50: > 1 µM
A-375
  IC50: > 40 µM
[3]
  IC50: > 1 µM
HepG2
  IC50: > 40 µM
HCT-116
  IC50: > 40 µM

## O=C1COc2ccc(-c3cnc(Cl)c(NS(=O)(=O)c4ccc(F)cc4)c3)cc2N1C1CCCCC1
[1]
  IC50: 0.112 µM
HeLa
  IC50: 14.3 µM
A549
  IC50: 37.9 µM
MCF7
  IC50: > 40 µM
[2]
  IC50: 0.29 µM
A-375
  IC50: > 40 µM
[3]
  IC50: 0.079 µM
HepG2
  IC50: > 40 µM
HCT-116
  IC50: > 40 µM

## COc1cccc(N2C(=O)COc3ccc(-c4ccc(O)cc4)cc32)c1
[1]
  IC50: > 1 µM
HeLa
  IC50: > 40 µM
A549
  IC50: > 40 µM
MCF7
  IC50: > 40 µM
[2]
  IC50: > 1 µM
A-375
  IC50: 30.4 µM
[3]
  IC50: > 1 µM
HepG2
  IC50: 26.1 µM
HCT-116
  IC50: 15.3 µM
